Assay results as given in paper PMC10235067, “Increased renal elimination of endogenous and synthetic pyrimidine nucleosides in concentrative nucleoside transporter 1 deficient mice” (Nature Communications, 2023).

How the values were obtained:
CNT1 = conditions: for fold increase of content in urine of Slc28a1-/- mice: Slc28a1-/- vs Slc28a1+/+, urine collected over 12 h starvation, 8-week-old mice, n = 6
Protocol: Linearity was established for analytes over the concentration ranges observed and the lower limit of quantification of the LC–MS/MS assay was approximately 0.1 ng/ml for each analyte (Fig. S2).
Standard solutions of all nucleotide targets were serially diluted to generate calibration solutions at concentrations of 0.0, 0.0001, 0.001, 0.01, 0.1, 1.0, and 10 µg/ml. Urine samples were prepared by adding 20 µL of urine solution to 80 µL of 50:50 H2O:MeOH containing internal standard, vortexing and centrifuging at 20,000 × g; then, 50 µL aliquots were placed into glass vials, dried in a SpeedVac and reconstituted in 5% MeOH with 0.1% formic acid for injection.
Samples were quantified using a heated electrospray ionization source (HESI) on a Thermo Scientific TQS Quantiva triple quadrupole mass spectrometer, and separation was achieved using a Thermo Scientific Ultimate 3000 HPLC equipped with an Agilent 120 SB-C18 reversed-phase column (2 × 100 mm, 2.7 µm particle size) maintained at 40 °C. […] For all experiments, the capillary voltage was set to 4.5 kV with a capillary temperature of 350 °C, a vaporizer temperature of 100 °C, a sheath gas flow of 12, an auxiliary gas flow of 13, and a 1.6 sweep gas. For selected reaction monitoring (SRM) mode, Q1 and Q3 were set to 0.7 full width at half maximum (FWHM) resolution, a cycle time of 0.8 s, and a CID gas pressure of 1.5 mTorr.

[1] = Gemcitabine urine pharmacokinetics (renal excretion) in Slc28a1+/+ and Slc28a1-/- mice; conditions: WT and KO mouse urine pooled 10 min to 2 h after dFdC 50 mg/kg i.v.
Protocol: THU was added to the mouse urine samples upon collection and frozen until analysis. […] Five microliters of the diluted samples were transferred to a 96-well autosampler plate then 10 µL of internal standard mixture was added and mixed. […] The plate was then transferred to the 4 °C autosampler for analysis.
The chromatographic separation was performed on a Thermo Accucore aQ 2.6 µm, 100 ×2.1 mm column at 30 °C using a gradient with a 10 µL injection volume. The mobiles phases were 1 mM ammonium acetate in deionized water pH 6.8 and acetonitrile. The total run time was 5.5 min. […] The LC–MS/MS analysis was conducted on a Thermo Vanquish UHPLC with a TSQ Quantiva mass spectrometer equipped with an electrospray ionization source.

[2] = Gemcitabine plasma pharmacokinetics in Slc28a1+/+ and Slc28a1-/- mice; conditions: Slc28a1+/+ and Slc28a1-/- mice; single i.v. dFdC 50 mg/kg

Compound	fold increase of content in urine of Slc28a1-/- mice (CNT1) [fold]	also measured
O=c1cc[nH]c(=O)[nH]1 [Uracil]	4.6	–
Nc1ccn([C@@H]2O[C@H](CO)[C@@H](O)[C@H]2O)c(=O)n1 [cytidine]	52.9	–
Nc1ccn([C@@H]2O[C@H](COP(=O)(O)OP(=O)(O)OP(=O)(O)O)[C@@H](O)C2(F)F)c(=O)n1 [dFdC-TP, dFdC triphosphate]	–	level in urine after dFdC dosing [1]: below the limits of quantification; plasma level after dFdC dosing [2]: did not detect appreciable quantities
Nc1nc2c(ncn2[C@H]2C[C@H](O)[C@@H](CO)O2)c(=O)[nH]1 [deoxyguanosine]	–	Concentration in urine (CNT1; Slc28a1+/+ and Slc28a1-/- mice, 12 h starvation): undetectable
O=c1ccn([C@H]2C[C@H](O)[C@@H](CO)O2)c(=O)[nH]1 [deoxyuridine]	2.4	–
O=c1ccn([C@@H]2O[C@H](CO)[C@@H](O)[C@H]2O)c(=O)[nH]1 [uridine]	5.9	–
